Measurements: patent US20220308044A1, “NOVEL LIVE-CELL ASSAY FOR NEURONAL ACTIVITY” (UNIVERSITY OF UTAH RESEARCH FOUNDATION, priority 2019, published 2022)
One block for each molecule: values may come before it.

Experiments:
[1] = test system: WT neurons; test: Secreted Neuronal Activity Reporter (SNAR) dual secreted luciferase assay in primary neuronal cultures; format: cell-based, mouse; conditions: for effect of individual inhibitors on SNAR activity: prolonged treatment, FIG. 3A
[2] = test system: CamKII neurons; test: Cre-dependent (floxed) SNAR assay with CamKII:Cre; format: cell-based, mouse; conditions: FIG. 6C
Experimental: Plasmid Cloning. The SNAR construct was synthesized by first introducing 2 core SARE (cSARE) sequences into an AAV vector backbone that included the Arc minimal promoter and the Gaussia luciferase coding sequences using inFusion cloning. A single cSARE sequence was synthesized using a long primer that was then used as a PCR template. Two additional cSARE sequences were then added, one at a time preceding the first 2 cSAREs. The entire 4× cSARE-ArcMin-Gluc was then cloned as an insert into an FCK vector (Addgene, Watertown, Mass.; catalog no. 51694) using restriction enzymes PacI and EcoRI for use as a transfer plasmid and packaging into lentivirus particles. Secreted Nanoluciferase (sNluc) was obtained by adding the Ig-kappa signal peptide to its N-terminus using a long primer. sNluc was then inserted into an FCK vector with the hPGK promoter. Each construct was then cloned into a DIO vector backbone (Addgene, Watertown, Mass.; catalog no. 87168) to obtain a Cre-dependent expression construct. […]
Luciferase Assays. To determine luciferase activity luminescencence from media samples was measured. […] For substrates, Coelenterazine (CTZ)-native (NanoLight Technology, Pinetope, Ariz.; catalog no. 303) and FMZ (Promega NanoGlo Assay; Promega, Madison, Wis.; catalog no. N1110) were added using a micro-injector connected to the plate reader (BioTek Synergy HT; Winooski, Vt.). […]

effect on reporter activity ([1]; 80 μM, at DIV14, FIG. 4A): significantly reduced reporter activity
Molecule: O=C1NC(=O)C(c2ccccc2)(c2ccccc2)N1 [phenytoin]

effect of individual inhibitors on SNAR activity [1]: dramatically suppressed SNAR activity
Molecule: NC(CCCP(=O)(O)O)C(=O)O (centres unmarked) [AP5]
effect on reporter accumulation [2]: decrease in reporter accumulation similar to that of the non-specific reporter

time after treatment at which the increase in SNAR activity was observed ([1]; kinetic analysis, chronic blockage of AMPAR-mediated transmission, FIG. 3B): 16 to 40 h
effect of individual inhibitors on SNAR activity [1]: increased SNAR activity
Molecule: N#Cc1cc2[nH]c(=O)c(=O)[nH]c2cc1[N+](=O)[O-] [CNQX]

Molecule: N#CC(=C(/N)Sc1ccccc1N)/C(C#N)=C(\N)Sc1ccccc1N [U0126]
effect on SNAR activity / accumulation [1]: significantly suppressed SNAR accumulation

effect on SNAR ([1]; 50 μM, FIG. 4A): reduced SNAR
Molecule: NC(=O)N1c2ccccc2C=Cc2ccccc21 [CBZ, carbamazepine]

B1: BDNF: a neurotropic factor that enhances synapse formation and transmission (protein, UniProt P23560 19-247, looked up)
Neurotrophic factor BDNF …: APMKEANIRGQGGLAYPGVRTHGTLESVNGPKAGSRGLTSLADTFEHVIEELLDEDQKVRPNEENNKDADLYTSRVMLSSQVPLEPPLLFLLEEYKNYLDAANMSMRVRRHSDPARRGELSVCDSISEWVTAADKKTAVDMSGGTVTVLEKVPVSKGQLKQYFYETKCNPMGYTKEGCRGIDKRHWNSQCRTTQSYVRALTMDSKKRIGWRFIRIDTSCVCTLTIKRGR
effect on reporter activity compared to a vehicle control ([1]; 50 ng/mL, 16 hours and 40 hours after the treatment, FIG. 4B): significantly and robustly increased reporter activity
